Data taken from publication PMC5218480 (PLoS ONE, 2017).

Tested on: MV-4-11 cells
Assay: Gene expression microarray analysis (Affymetrix PrimeView) and GSEA
Assay type: cell-based, human
Design: RFU PODN (11730768_x_at) / Fold change /veh PODN (11730768_x_at) / RFU LINC00158 (11744669_a_at) / Fold change /veh LINC00158 (11744669_a_at) / RFU DUSP10 (11751237_a_at) / Fold change /veh DUSP10 (11751237_a_at) / RFU ID3 (11757404_x_at) / Fold change /veh ID3 (11757404_x_at) / RFU PLEKHG5 (11737974_s_at) / Fold change /veh PLEKHG5 (11737974_s_at) / RFU LRRC4B (11730491_at) / Fold change /veh LRRC4B (11730491_at) / RFU GIMAP4 (11747438_a_at) / Fold change /veh GIMAP4 (11747438_a_at) / RFU KRT8 (11758183_x_at) / Fold change /veh KRT8 (11758183_x_at) / RFU CNN1 (11734310_a_at) / Fold change /veh CNN1 (11734310_a_at) / RFU VPS37D (11726825_at) / Fold change /veh VPS37D (11726825_at) / RFU C10orf10 (11716522_x_at) / Fold change /veh C10orf10 (11716522_x_at) / RFU KIR2DL2 /// KIR2DL4 /// KIR2DL5A /// KIR2DL5B /// KIR2DS1 /// KIR2DS2 /// KIR2DS3 /// KIR2DS4 /// KIR3DL3 /// KIR3DL3 /// KIR3DS1 (11738374_at) / Fold change /veh KIR2DL2 /// KIR2DL4 /// KIR2DL5A /// KIR2DL5B /// KIR2DS1 /// KIR2DS2 /// KIR2DS3 /// KIR2DS4 /// KIR3DL3 /// KIR3DL3 /// KIR3DS1 (11738374_at) / RFU C1QL1 (11718748_at) / Fold change /veh C1QL1 (11718748_at) / RFU TMPRSS4 (11747572_a_at) / Fold change /veh TMPRSS4 (11747572_a_at) / RFU HAMP (11756126_x_at) / Fold change /veh HAMP (11756126_x_at) / RFU RNFT2 (11725882_a_at) / Fold change /veh RNFT2 (11725882_a_at) / RFU NR4A2 (11747474_a_at) / Fold change /veh NR4A2 (11747474_a_at) / RFU ABCC12 (11746883_a_at) / Fold change /veh ABCC12 (11746883_a_at) / RFU TMEM136 (11760407_x_at) / Fold change /veh TMEM136 (11760407_x_at) / RFU CLDN22 /// WWC2 (11732394_at) / Fold change /veh CLDN22 /// WWC2 (11732394_at) / RFU HLA-DPB1 (11760878_x_at) / Fold change /veh HLA-DPB1 (11760878_x_at) / RFU SPINT1 (11716480_a_at) / Fold change /veh SPINT1 (11716480_a_at) / RFU GAP43 (11754022_s_at) / Fold change /veh GAP43 (11754022_s_at) / RFU A4GNT (11735810_at) / Fold change /veh A4GNT (11735810_at) / RFU PRB3 (11715151_x_at) / Fold change /veh PRB3 (11715151_x_at) / RFU TUBB4B (11761932_at) / Fold change /veh TUBB4B (11761932_at) / RFU CAPN14 (11732068_a_at) / Fold change /veh CAPN14 (11732068_a_at) / RFU TMCC2 (11721928_a_at) / Fold change /veh TMCC2 (11721928_a_at) / RFU IRGQ (11745062_a_at) / Fold change /veh IRGQ (11745062_a_at) / RFU FAM174B (11720279_a_at) / Fold change /veh FAM174B (11720279_a_at) / RFU TMPRSS4 (11748680_a_at) / Fold change /veh TMPRSS4 (11748680_a_at) / RFU FAM212B (11763350_a_at) / Fold change /veh FAM212B (11763350_a_at) / RFU PLEKHG5 (11743358_a_at) / Fold change /veh PLEKHG5 (11743358_a_at) / RFU ZSCAN30 (11745921_a_at) / Fold change /veh ZSCAN30 (11745921_a_at) / RFU CMKLR1 (11741424_a_at) / Fold change /veh CMKLR1 (11741424_a_at) / RFU LOC101060620 /// MAPK8IP1 (11723275_at) / Fold change /veh LOC101060620 /// MAPK8IP1 (11723275_at) / RFU SPTSSB (11747773_x_at) / Fold change /veh SPTSSB (11747773_x_at) / RFU PRSS12 (11739890_at) / Fold change /veh PRSS12 (11739890_at) / RFU BIN1 (11741810_x_at) / Fold change /veh BIN1 (11741810_x_at) / RFU WNT11 (11732464_a_at) / Fold change /veh WNT11 (11732464_a_at) / RFU C10orf10 (11716521_a_at) / Fold change /veh C10orf10 (11716521_a_at) / RFU C5orf56 (11738089_at) / Fold change /veh C5orf56 (11738089_at) / RFU CYB561 (11721691_x_at) / Fold change /veh CYB561 (11721691_x_at) / RFU ANKRD19P (11752326_a_at) / Fold change /veh ANKRD19P (11752326_a_at) / RFU OR2T12 /// OR2T33 /// OR2T8 (11738714_s_at) / Fold change /veh OR2T12 /// OR2T33 /// OR2T8 (11738714_s_at) / RFU VCAN (11748164_a_at) / Fold change /veh VCAN (11748164_a_at) / RFU JSRP1 (11732532_at) / Fold change /veh JSRP1 (11732532_at) / RFU KRTAP10-11 (11738290_x_at) / Fold change /veh KRTAP10-11 (11738290_x_at) / RFU MYO3A (11730013_a_at) / Fold change /veh MYO3A (11730013_a_at) / RFU EBF3 (11725865_a_at) / Fold change /veh EBF3 (11725865_a_at) / RFU CAMK2N1 (11719241_x_at) / Fold change /veh CAMK2N1 (11719241_x_at) / RFU C5orf56 (11738088_a_at) / Fold change /veh C5orf56 (11738088_a_at) / RFU OLFML3 (11715873_a_at) / Fold change /veh OLFML3 (11715873_a_at) / RFU LOC100653217 /// NTM (11731650_a_at) / Fold change /veh LOC100653217 /// NTM (11731650_a_at) / RFU MAPK11 (11762145_a_at) / Fold change /veh MAPK11 (11762145_a_at) / RFU FIZ1 (11724087_x_at) / Fold change /veh FIZ1 (11724087_x_at) / RFU OASL (11726364_x_at) / Fold change /veh OASL (11726364_x_at) / RFU SOX15 (11748057_x_at) / Fold change /veh SOX15 (11748057_x_at) / RFU CD79A (11719716_a_at) / Fold change /veh CD79A (11719716_a_at) / RFU HIST1H1D (11736915_at) / Fold change /veh HIST1H1D (11736915_at) / RFU CASKIN2 (11723855_a_at) / Fold change /veh CASKIN2 (11723855_a_at) / RFU LOC730098 (11760151_x_at) / Fold change /veh LOC730098 (11760151_x_at) / RFU OR4N2 (11742367_at) / Fold change /veh OR4N2 (11742367_at) / RFU PRRT2 (11749266_a_at) / Fold change /veh PRRT2 (11749266_a_at) / RFU SNX32 (11753110_a_at) / Fold change /veh SNX32 (11753110_a_at) / RFU CDHR5 (11726645_a_at) / Fold change /veh CDHR5 (11726645_a_at) / RFU RCAN1 (11760418_a_at) / Fold change /veh RCAN1 (11760418_a_at) / RFU FAM167A (11723789_a_at) / Fold change /veh FAM167A (11723789_a_at) / RFU FAM26E (11764081_at) / Fold change /veh FAM26E (11764081_at) / RFU ISYNA1 (11749810_s_at) / Fold change /veh ISYNA1 (11749810_s_at) / RFU ACY1 (11761880_at) / Fold change /veh ACY1 (11761880_at) / RFU 11764098_at / Fold change /veh 11764098_at / RFU SAMD14 (11745864_x_at) / Fold change /veh SAMD14 (11745864_x_at) / RFU NPB (11741838_a_at) / Fold change /veh NPB (11741838_a_at) / RFU TMPRSS6 (11731388_a_at) / Fold change /veh TMPRSS6 (11731388_a_at) / RFU KRTAP10-2 (11738614_at) / Fold change /veh KRTAP10-2 (11738614_at) / RFU ARHGAP8 /// PRR5-ARHGAP8 (11727945_x_at) / Fold change /veh ARHGAP8 /// PRR5-ARHGAP8 (11727945_x_at) / RFU KRTAP5-7 /// NADSYN1 (11734609_at) / Fold change /veh KRTAP5-7 /// NADSYN1 (11734609_at) / RFU RASL12 (11751679_a_at) / Fold change /veh RASL12 (11751679_a_at) / RFU CDKN2B (11736163_a_at) / Fold change /veh CDKN2B (11736163_a_at) / RFU PRF1 (11729649_at) / Fold change /veh PRF1 (11729649_at) / RFU, ZNF638 /// ZNF638-IT1 / Fold change vs veh, ZNF638 /// ZNF638-IT1 / RFU, PANK3 / Fold change vs veh, PANK3 / RFU, SH3YL1 / Fold change vs veh, SH3YL1 / RFU, ZEB2 / Fold change vs veh, ZEB2 / RFU, NRIP1 / Fold change vs veh, NRIP1 / RFU, PTTG1IP / Fold change vs veh, PTTG1IP / RFU, CAPN2 / Fold change vs veh, CAPN2 / RFU, MED14 / Fold change vs veh, MED14 / RFU, SNORA58 / Fold change vs veh, SNORA58 / RFU, C1orf63 / Fold change vs veh, C1orf63 / RFU, LRRFIP1 / Fold change vs veh, LRRFIP1 / RFU, NDUFAF7 / Fold change vs veh, NDUFAF7 / RFU, SLC12A2 / Fold change vs veh, SLC12A2 / RFU, IBTK / Fold change vs veh, IBTK / RFU, ESF1 / Fold change vs veh, ESF1 / Fold change vs veh, TMEM50B / RFU, TAOK1 / Fold change vs veh, TAOK1 / RFU, ACBD3 / Fold change vs veh, ACBD3 / RFU, TMA16 / Fold change vs veh, TMA16 / RFU, RWDD3 / Fold change vs veh, RWDD3 / RFU, BCAT1 / Fold change vs veh, BCAT1 / RFU, EDEM3 / Fold change vs veh, EDEM3 / RFU, TMEM33 / Fold change vs veh, TMEM33 / RFU, WDR75 / Fold change vs veh, WDR75 / RFU, AHCTF1 / Fold change vs veh, AHCTF1 / RFU, TFRC / Fold change vs veh, TFRC / RFU, ZDHHC17 / Fold change vs veh, ZDHHC17 / RFU, NOM1 / Fold change vs veh, NOM1 / RFU, ARL8B / Fold change vs veh, ARL8B / RFU, ZBTB11 / Fold change vs veh, ZBTB11 / RFU, TAMM41 / Fold change vs veh, TAMM41 / RFU, KIAA1704 /// LOC100996395 / Fold change vs veh, KIAA1704 /// LOC100996395 / RFU, ING1 / Fold change vs veh, ING1 / RFU, TRMT61B / Fold change vs veh, TRMT61B / RFU, FUBP3 / Fold change vs veh, FUBP3 / RFU, TP53 / Fold change vs veh, TP53 / RFU, TNKS2 / Fold change vs veh, TNKS2 / RFU, ZFP14 / Fold change vs veh, ZFP14 / RFU, ACTR2 / Fold change vs veh, ACTR2 / RFU, PPP3R1 / Fold change vs veh, PPP3R1 / RFU, PIK3R1 / Fold change vs veh, PIK3R1 / RFU, HNRNPA1 / Fold change vs veh, HNRNPA1 / RFU, RNF170 / Fold change vs veh, RNF170 / RFU, ZNF28 / Fold change vs veh, ZNF28 / RFU, RNGTT / Fold change vs veh, RNGTT / RFU, OGT / Fold change vs veh, OGT / RFU, BRD1 / Fold change vs veh, BRD1 / RFU, MARS / Fold change vs veh, MARS / RFU, ZNF655 / Fold change vs veh, ZNF655 / RFU, FAHD1 / Fold change vs veh, FAHD1 / RFU, BDP1 / Fold change vs veh, BDP1 / RFU, LRRCC1 / Fold change vs veh, LRRCC1 / RFU, ARID1A / Fold change vs veh, ARID1A / RFU, ZNF146 / Fold change vs veh, ZNF146 / RFU, ZNF330 / Fold change vs veh, ZNF330 / RFU, GPN3 / Fold change vs veh, GPN3 / RFU, C9orf123 / Fold change vs veh, C9orf123 / RFU, N4BP2L2 / Fold change vs veh, N4BP2L2 / RFU, ARFIP1 / Fold change vs veh, ARFIP1 / RFU, FAM179B / Fold change vs veh, FAM179B / RFU, BCL10 / Fold change vs veh, BCL10 / RFU, UHRF1BP1L / Fold change vs veh, UHRF1BP1L / RFU, BET1 / Fold change vs veh, BET1 / RFU, CNOT2 / Fold change vs veh, CNOT2 / RFU, ZNF268 / Fold change vs veh, ZNF268 / Fold change vs veh, ZNF507 / RFU, DGCR2 / Fold change vs veh, DGCR2 / RFU, WDSUB1 / Fold change vs veh, WDSUB1 / Fold change vs veh, HSP90B1 /// MIR3652 / RFU, ADSS / Fold change vs veh, ADSS / RFU, GK / Fold change vs veh, GK / RFU, ZNF148 / Fold change vs veh, ZNF148 / RFU, TAF9 / Fold change vs veh, TAF9 / RFU, SLC1A5 / Fold change vs veh, SLC1A5 / RFU, SLMO2 / Fold change vs veh, SLMO2 / RFU, ABCC4 / Fold change vs veh, ABCC4 / RFU, LOC101060439 /// RAP1B / Fold change vs veh, LOC101060439 /// RAP1B / RFU, RFX7 / Fold change vs veh, RFX7 / RFU, GTPBP10 / Fold change vs veh, GTPBP10 / RFU, CNEP1R1 / Fold change vs veh, CNEP1R1 / RFU, BIVM-ERCC5 /// ERCC5 / Fold change vs veh, BIVM-ERCC5 /// ERCC5 / RFU, ILF3 / Fold change vs veh, ILF3 / RFU 11762660_at / Fold change /veh 11762660_at / RFU VCAN (11757783_s_at) / Fold change /veh VCAN (11757783_s_at) / RFU DDX43 (11728927_at) / Fold change /veh DDX43 (11728927_at) / RFU KRT8 (11758188_x_at) / Fold change /veh KRT8 (11758188_x_at) / RFU NKD1 (11759106_at) / Fold change /veh NKD1 (11759106_at) / RFU SRD5A1 (11742802_a_at) / Fold change /veh SRD5A1 (11742802_a_at) / RFU TPSAB1 /// TPSB2 (11721975_s_at) / Fold change /veh TPSAB1 /// TPSB2 (11721975_s_at) / RFU GSTM3 (11746129_a_at) / Fold change /veh GSTM3 (11746129_a_at) / RFU IL23R (11737362_x_at) / Fold change /veh IL23R (11737362_x_at) / RFU TMEM51 (11727254_a_at) / Fold change /veh TMEM51 (11727254_a_at) / RFU PIWIL2 (11732686_x_at) / Fold change /veh PIWIL2 (11732686_x_at) / RFU ORM1 (11744905_x_at) / Fold change /veh ORM1 (11744905_x_at) / RFU CCDC152 (11743942_at) / Fold change /veh CCDC152 (11743942_at) / RFU ECM1 (11717891_a_at) / Fold change /veh ECM1 (11717891_a_at) / RFU IL23R (11748794_a_at) / Fold change /veh IL23R (11748794_a_at) / RFU TNFAIP8L3 (11732012_x_at) / Fold change /veh TNFAIP8L3 (11732012_x_at) / RFU MBOAT4 (11741988_at) / Fold change /veh MBOAT4 (11741988_at) / RFU 11764193_at / Fold change /veh 11764193_at / RFU TMEM53 (11763286_at) / Fold change /veh TMEM53 (11763286_at) / RFU MAGEB2 (11727129_at) / Fold change /veh MAGEB2 (11727129_at) / RFU TMEM200A (11744735_a_at) / Fold change /veh TMEM200A (11744735_a_at) / RFU CCDC152 (11751479_a_at) / Fold change /veh CCDC152 (11751479_a_at) / RFU FAM211A (11726209_a_at) / Fold change /veh FAM211A (11726209_a_at) / RFU RGS16 (11746705_a_at) / Fold change /veh RGS16 (11746705_a_at) / RFU VCAN (11755009_s_at) / Fold change /veh VCAN (11755009_s_at) / RFU RHOB (11743442_s_at) / Fold change /veh RHOB (11743442_s_at) / RFU RGS16 (11720943_a_at) / Fold change /veh RGS16 (11720943_a_at) / RFU RGS16 (11720944_at) / Fold change /veh RGS16 (11720944_at) / RFU, VPS4B / Fold change vs veh, VPS4B / RFU, CREB1 / Fold change vs veh, CREB1 / RFU, DNAJC13 / Fold change vs veh, DNAJC13 / RFU, GNAQ / Fold change vs veh, GNAQ / RFU, CDK5R1 / Fold change vs veh, CDK5R1 / RFU, ZRANB3 / Fold change vs veh, ZRANB3 / RFU, CUL4A / Fold change vs veh, CUL4A / RFU, CCNY / Fold change vs veh, CCNY / RFU, UFL1 / Fold change vs veh, UFL1 / RFU, COG3 / Fold change vs veh, COG3 / RFU, DIAPH2 / Fold change vs veh, DIAPH2 / RFU, SKA2 / Fold change vs veh, SKA2 / RFU, AFF3 / Fold change vs veh, AFF3 / RFU, LMF1 / Fold change vs veh, LMF1 / RFU, IPO11 / Fold change vs veh, IPO11 / RFU, DFFB / Fold change vs veh, DFFB / RFU, FOXP1 / Fold change vs veh, FOXP1 / RFU, CARD8 / Fold change vs veh, CARD8 / RFU, STRN3 / Fold change vs veh, STRN3 / RFU, ADK / Fold change vs veh, ADK / RFU, RASSF2 / Fold change vs veh, RASSF2 / RFU, WIPF1 / Fold change vs veh, WIPF1 / RFU, LARP1B / Fold change vs veh, LARP1B / RFU, RASA1 / Fold change vs veh, RASA1 / RFU, RB1 / Fold change vs veh, RB1 / RFU, PPFIA1 / Fold change vs veh, PPFIA1 / RFU, MAT2A / Fold change vs veh, MAT2A / RFU, CCT5 / Fold change vs veh, CCT5 / RFU, WDR92 / Fold change vs veh, WDR92 / RFU, CUX1 / Fold change vs veh, CUX1 / RFU, TTC7A / Fold change vs veh, TTC7A / RFU, TMEM135 / Fold change vs veh, TMEM135 / RFU, DEPTOR / Fold change vs veh, DEPTOR / RFU, CPM / Fold change vs veh, CPM / RFU, DNAJB6 / Fold change vs veh, DNAJB6 / RFU, CACNA2D3 / Fold change vs veh, CACNA2D3 / RFU, DTX4 / Fold change vs veh, DTX4 / RFU, TFCP2 / Fold change vs veh, TFCP2 / RFU, GMCL1 /// GMCL1P1 / Fold change vs veh, GMCL1 /// GMCL1P1 / RFU, AEBP2 / Fold change vs veh, AEBP2 / RFU, SNHG1 /// SNORD22 /// SNORD25 /// SNORD26 /// SNORD27 /// SNORD28 /// SNORD29 /// SNORD31 / Fold change vs veh, SNHG1 /// SNORD22 /// SNORD25 /// SNORD26 /// SNORD27 /// SNORD28 /// SNORD29 /// SNORD31 / Fold change (Aza/veh), C12orf56 (ProbeSet 11735607_a_at) / Fold change (ACY-1035/veh), C12orf56 (ProbeSet 11735607_a_at) / Fold change (Aza/veh), FGFR1OP (ProbeSet 11751329_s_at) / Fold change (ACY-1035/veh), FGFR1OP (ProbeSet 11751329_s_at) / Fold change (Aza/veh), VPS36 (ProbeSet 11739960_a_at) / Fold change (ACY-1035/veh), VPS36 (ProbeSet 11739960_a_at) / RFU SYPL1 (11715823_x_at) / Fold change /veh SYPL1 (11715823_x_at) / RFU IGFBP7 (11715501_s_at) / Fold change /veh IGFBP7 (11715501_s_at) / RFU REEP3 (11722064_at) / Fold change /veh REEP3 (11722064_at) / RFU IGLL1 (11728026_x_at) / Fold change /veh IGLL1 (11728026_x_at): dose or concentration left out as unconfirmed
Conditions: MV-4-11 cells, 48 hours

In the case of Nc1ccc(-c2cccs2)cc1NC(=O)c1ccc2c(c1)cc(C1CC1)n2CCN1CCOCC1 [ACY-1035], the “RFU SYPL1 (11715823_x_at)” value is reported as 565.47 RFU.
